Results taken from PubChem BioAssay (NCI).
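Cultured in 96-well plates, cells were exposed to test compound for 48 hours across five concentrations. Definition used: TGI = concentration required for complete inhibition of growth.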

Columns and labels:
Test in all cases: growth of human tumour cells (NCI), 48 h
786-0 renal = test system: 786-0 renal
UO-31 renal = test system: UO-31 renal
HOP-62 NSCLC = test system: HOP-62 NSCLC
HCT-116 colon = test system: HCT-116 colon
NCI-H226 lung = test system: NCI-H226 lung
SNB-78 CNS = test system: SNB-78 CNS
M14 melanoma = test system: M14 melanoma
DMS 273 small cell lung = test system: DMS 273 small cell lung
SF-268 CNS = test system: SF-268 CNS
M19-MEL melanoma = test system: M19-MEL melanoma
XF 498 CNS = test system: XF 498 CNS
RXF 393 renal = test system: RXF 393 renal
MDA-N = test system: MDA-N
HS 578T breast = test system: HS 578T breast

Row | Compound | TGI (786-0 renal) | TGI (UO-31 renal) | TGI (HOP-62 NSCLC) | TGI (HCT-116 colon) | TGI (NCI-H226 lung) | TGI (SNB-78 CNS) | TGI (M14 melanoma) | TGI (DMS 273 small cell lung) | TGI (SF-268 CNS) | TGI (M19-MEL melanoma) | TGI (XF 498 CNS) | TGI (RXF 393 renal) | TGI (MDA-N) | TGI (HS 578T breast)
1 | CC(=O)Nc1ccc(C(=O)N2N=C(C)/C(=C/c3cccc([N+](=O)[O-])c3)C2=O)cc1 | > 100 µM | > 100 µM | > 100 µM | > 100 µM | > 100 µM | > 100 µM | > 100 µM | > 100 µM | > 100 µM | > 100 µM | – | – | – | –
2 | CN(/N=N/c1nc[nH]c1C(N)=O)C1CCCCC1 | – | – | > 100 µM | > 100 µM | > 100 µM | > 100 µM | > 100 µM | > 100 µM | > 100 µM | > 100 µM | > 100 µM | > 100 µM | – | –
3 | COC1=CC(=O)c2c(O)c3c(c(O)c2C1=O)C[C@](C)(O)C[C@@H]3O | 46.7 µM | 26.9 µM | 19.7 µM | 8.94 µM | 45.6 µM | 16.3 µM | 8.59 µM | 8.37 µM | 32.8 µM | 0.73 µM | 9.5 µM | 17.3 µM | 3.35 µM | 81.4 µM
4 | C=CCC1(CC)C(=O)NC(=O)NC1=O | > 100 µM | > 100 µM | > 100 µM | > 100 µM | > 100 µM | > 100 µM | > 100 µM | > 100 µM | > 100 µM | > 100 µM | – | > 100 µM | – | –
5 | COc1cccc(NC(=O)CC(=O)NNCC(=O)Nc2nnc(-c3ccc(N(CCC#N)S(=O)(=O)c4ccccc4)cc3)s2)c1 | – | > 100 µM | > 100 µM | > 100 µM | > 100 µM | > 100 µM | – | > 100 µM | > 100 µM | > 100 µM | > 100 µM | > 100 µM | – | –
6 | Cc1occ2c1C(=O)CC1C2[C@@H](O)CC2C(C)(C)CCC[C@]12C (stereo not given in full) | > 100 µM | > 100 µM | > 100 µM | > 100 µM | > 100 µM | > 100 µM | > 100 µM | – | > 100 µM | > 100 µM | > 100 µM | > 100 µM | – | –
7 | C#CCSc1nc(N)c2ncn(C3OC(COP(=O)(O)O)C(O)C3O)c2n1 (stereo not given) | > 239 µM | > 239 µM | > 239 µM | > 239 µM | > 239 µM | > 239 µM | > 239 µM | > 239 µM | > 239 µM | > 239 µM | > 239 µM | – | – | –
8 | COC(=O)C1=C(C)N(NC(=O)c2ccccc2)C2(O)CCCC(=O)C12C (stereo not given) | – | > 100 µM | – | > 100 µM | > 100 µM | > 100 µM | > 100 µM | > 100 µM | – | – | > 100 µM | > 100 µM | – | –
9 | COc1cc(/C=C2\Cc3cc(OC)c(OC)cc3C2=O)cc(OC)c1 | > 56.6 µM | > 100 µM | > 80.1 µM | > 52.2 µM | > 100 µM | – | > 100 µM | – | > 100 µM | – | – | 57.1 µM | 39.2 µM | > 100 µM
10 | N#CC1(c2ccccc2)CCN(C2(c3ccccc3)CCCCC2)CC1 | > 100 µM | > 100 µM | > 100 µM | > 100 µM | > 100 µM | – | > 100 µM | – | > 100 µM | – | – | > 100 µM | > 100 µM | > 100 µM
11 | CNC(=S)N/N=C(\C)c1nc2ncccc2[nH]1 | > 100 µM | 40.6 µM | > 100 µM | > 100 µM | > 90.9 µM | – | > 100 µM | – | > 100 µM | – | – | > 100 µM | > 100 µM | > 84.3 µM
12 | CN(C)Cc1cc(C(=O)/C=C/c2cccc(Cl)c2)cc(CN(C)C)c1O | 15.7 µM | 19.5 µM | 13.7 µM | 13.3 µM | 19.6 µM | – | 15.5 µM | – | 24.1 µM | – | – | 23.6 µM | 10.3 µM | 32.7 µM
13 | O=C(/C=C(\O)c1ccccc1)/C(=C/C(=O)c1ccccc1)NN=C(c1ccccc1)c1ccccc1 | > 100 µM | > 100 µM | > 100 µM | > 100 µM | 72.7 µM | – | 72.6 µM | – | > 100 µM | – | – | > 100 µM | > 100 µM | > 100 µM
14 | Cc1ccc(N=C2SC(c3ccc(C)cc3)(c3ccc(C)cc3)c3ccccc32)cc1 | > 100 µM | > 100 µM | > 100 µM | > 100 µM | > 100 µM | – | > 100 µM | – | > 100 µM | – | – | > 100 µM | > 100 µM | > 100 µM
